# Results: patent US20240300927A1, “AMIDES AS CBL-B INHIBITORS” (Genentech, Inc., priority 2021, published 2024)
# pIC50: −log10 of the molar value.
# Assays:
# Cbl-b = Cbl-b (Homo sapiens (Human), UniProt Q13191); experiment: Cbl-b LCK Ub TR-FRET assay (Cbl-b Lck HTRF); type: biochemical; conditions: for (fold-selectivity): Cbl-b and C-Cbl selectivity, Lck HTRF; for pIC50: read-out: Cbl-b Lck HTRF IC50
# Outline: (§1)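 Biotin-Cbl-b (16 nM) or biotin-c-Cbl (12 nM) at 2× preincubated with compound 60 min, then His-LCK (120 nM), 1 mM ATP and MgCl2 (2× mix) added for 90 min at RT. Buffer: HEPES pH 7.0, DTT. UBE2D2–HA-ubiquitin transfer read by TR-FRET (665/615 nm); IC50 versus no-LCK and DMSO controls, 10-point dilutions.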
# c-Cbl = c-Cbl (Homo sapiens (Human), UniProt P22681); experiment: C-cbl LCK Ub TR-FRET assay (C-cbl Lck HTRF); type: biochemical
# Sequence of c-Cbl (P22681 47-435): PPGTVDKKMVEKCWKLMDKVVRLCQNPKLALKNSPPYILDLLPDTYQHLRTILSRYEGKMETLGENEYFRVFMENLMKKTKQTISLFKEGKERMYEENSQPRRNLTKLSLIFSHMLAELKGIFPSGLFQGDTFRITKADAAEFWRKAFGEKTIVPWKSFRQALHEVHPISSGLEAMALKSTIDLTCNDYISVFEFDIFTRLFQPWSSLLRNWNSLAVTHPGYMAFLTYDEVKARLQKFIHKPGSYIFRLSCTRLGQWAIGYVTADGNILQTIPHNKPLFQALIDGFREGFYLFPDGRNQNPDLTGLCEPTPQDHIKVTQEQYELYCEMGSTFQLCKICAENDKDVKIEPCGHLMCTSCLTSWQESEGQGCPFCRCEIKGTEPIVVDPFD
# Outline: as §1
# Sequence of Cbl-b (Q13191 40-426): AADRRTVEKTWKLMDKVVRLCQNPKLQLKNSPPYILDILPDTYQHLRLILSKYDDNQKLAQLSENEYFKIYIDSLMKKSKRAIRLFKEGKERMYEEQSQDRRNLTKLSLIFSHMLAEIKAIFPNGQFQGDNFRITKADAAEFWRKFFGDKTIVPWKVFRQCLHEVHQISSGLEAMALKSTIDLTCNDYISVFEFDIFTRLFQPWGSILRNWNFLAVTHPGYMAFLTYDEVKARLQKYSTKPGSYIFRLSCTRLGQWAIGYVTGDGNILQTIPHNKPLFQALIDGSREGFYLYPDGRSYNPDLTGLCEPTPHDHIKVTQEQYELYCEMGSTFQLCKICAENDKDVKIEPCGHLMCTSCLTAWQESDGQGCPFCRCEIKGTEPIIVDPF
Structure (SMILES),(fold-selectivity) (Cbl-b),pIC50 (Cbl-b),pIC50 (c-Cbl)
"Cn1cnnc1[C@H](F)[C@]1(c2cccc(NC(=O)c3cccc(C(F)(F)F)n3)c2)CCO1 [Compound 503, N-(3-((R)-2-((S)-fluoro(4-methyl-4H-1,2,4-triazol-3-yl)methyl)oxetan-2-yl)phenyl)-6-(trifluoromethyl)picolinamide]",(0.85x),4.70,4.77
"Cn1cnnc1[C@@H](F)[C@]1(c2cccc(NC(=O)c3cccc(C(F)(F)F)n3)c2)CCO1 [Compound 504, N-(3-((R)-2-((R)-fluoro(4-methyl-4H-1,2,4-triazol-3-yl)methyl)oxetan-2-yl)phenyl)-6-(trifluoromethyl)picolinamide]",(0.55x),4.80,5.06
"Cn1cnnc1CC1(c2cccc(NC(=O)c3cc(C(CC4CC4)N4CCC5(CC5)C4)cc(C(F)(F)F)n3)c2)COC1 (stereo not drawn) [Compound 505, 4-(2-cyclopropyl-1-(5-azaspiro[2.4]heptan-5-yl)ethyl)-N-(3-(3-((4-methyl-4H-1,2,4-triazol-3-yl)methyl)oxetan-3-yl)phenyl)-6-(trifluoromethyl)picolinamide]",(1.5x),7.59,7.41

# Next, values leading:
(fold-selectivity) (Cbl-b),pIC50 (Cbl-b),pIC50 (c-Cbl),Structure (SMILES)
(1.1x),6.82,6.80,"Cn1cnnc1CC1(c2cccc(NC(=O)c3cc(CCO)cc(C(F)(F)F)n3)c2)COC1 [Compound 506, 4-(2-hydroxyethyl)-N-(3-(3-((4-methyl-4H-1,2,4-triazol-3-yl)methyl)oxetan-3-yl)phenyl)-6-(trifluoromethyl)picolinamide]"
(0.89x),7.00,7.05,"Cn1cnnc1CC1(c2cccc(NC(=O)c3cc(CC(N)=O)cc(C(F)(F)F)n3)c2)COC1 [Compound 507, 4-(2-amino-2-oxoethyl)-N-(3-(3-((4-methyl-4H-1,2,4-triazol-3-yl)methyl)oxetan-3-yl)phenyl)-6-(trifluoromethyl)picolinamide]"
